Results as given in the NIST ThermoML archive (doi:10.1016/j.fluid.2008.11.014).
± gives the expanded uncertainty stated by the source.

Experiments:
[1] = refractive index (Na D-line) (dimensionless); conditions: 298.2 K; 101.33 kPa; Liquid; Standard Abbe refractometry
[2] = 298.2 K; 101.33 kPa; Liquid; Vibrating tube method

SMILES | refractive index [1] | mass density [2] [kg/m3]
CC(C)OC(C)C [diisopropyl ether] | 1.3653 ± 0.0007 | 718.79 ± 0.3
CCCO [propan-1-ol] | 1.3835 ± 0.0007 | 799.62 ± 0.24
